Test system: gamma-secretase
Assay: gamma-secretase activity in a solubilized membrane preparation (cell-free assay, McLendon et al.)
Type: biochemical
Conditions: read-out: IC50 activity for inhibiting gamma-secretase activity
Description: The activity of compounds of the invention in inhibiting gamma-secretase activity was determined in a solubilized membrane preparation generally according to the description provided in McLendon et al. Cell-free assays for γ-secretase activity, The FASEB Journal (Vol. 14, December 2000, pp. 2383-2386).

Molecule CCC(NC(=O)Cc1cc(F)cc(F)c1)C(=O)Nc1ncc(-c2ccc(Br)s2)s1 (stereo not shown) [Example 11, N-[5-(5-bromo-thiophen-2-yl)-thiazol-2-yl]-2-[2-(3,5-difluoro-phenyl)-acetylamino]-butyramide] has an IC50 of about 5 µM.
